From patent publication US4552879A, “Benzoheterocyclic compounds and pharmaceutical composition thereof” (Otsuka Pharmaceutical Co., Ltd., priority 1980, dated 1985)
Values after ≈ are worked out from the molar mass of the structure shown. Like-named read-outs stand apart in the source and are kept apart here.

Key:
Assay in all cases: Minimum inhibitory concentration, serial dilution method on agar plate
Type in all cases: cell-based
Bacillus cereus IFO 3001 = test system: Bacillus cereus IFO 3001
[1] = test system: Staphylococcus aureus 7447
[2] = test system: Staphylococcus aureus No. 80
[3] = test system: Streptococcus pyogenes IID S-23; conditions: Streptococcus pyogenes, read-out: Minimum Inhibitory Concentration
Shigella sonnei EW 33 = test system: Shigella sonnei EW 33
Experimental: The antimicrobial activity of the following test compounds on various test organisms listed below was determined by the serial dilution method on agar plate (Heart Infusion agar produced by Difco Co.) (see CHEMOTHERAPY 22, pp. 1126-1128 (1974)), and the minimum inhibitory concentrations (mcg/ml) obtained are shown in Tables 1, 2 and 3 below.
A sample of each test organism was prepared so that the population of the organism was 1×10^8 cells/ml (O.D. 660 mμ=0.07 to 0.16) and 1×10^6 cells/ml (which was obtained by diluting 100 fold the above 1×10^8 cells/ml preparation).

[4] = test system: Staphylococcus epidermidis IFO 3762

## CC1CCc2c(N3CCC(O)CC3)c(F)cc3c(=O)c(C(=O)O)cn1c23 (stereo not drawn) [Compound 1, 9-Fluoro-8-(4-hydroxy-1-piperidyl)-5-methyl-6,7-dihydro-1-oxo-1H,5H-benzo[ij]quinolizine-2-carboxylic acid]
Bacillus cereus IFO 3001; 1×10^6 cells/ml
  Minimum Inhibitory Concentration: 0.10 µg/mL
Bacillus cereus IFO 3001; Bacillus cereus, IFO3001, 1×10^8 cells/ml
  MIC: 0.1 µg/mL (≈ 0.277 µM)
[1]; 1×10^6 cells/ml
  Minimum Inhibitory Concentration: 0.05 µg/mL
[1]; Staphylococcus aureus, 7447, 1×10^8 cells/ml
  MIC: 0.05 µg/mL (≈ 0.139 µM)
[2]; NO.80, 1×10^6 cells/ml
  MIC: 0.024 µg/mL (≈ 0.0666 µM)
[2]; NO.80, 1×10^8 cells/ml
  MIC: 0.05 µg/mL (≈ 0.139 µM)
[3]; IIDS23, 1×10^6 cells/ml
  MIC: 0.39 µg/mL (≈ 1.08 µM)
[3]; IIDS23, 1×10^8 cells/ml
  MIC: 0.78 µg/mL (≈ 2.16 µM)
Shigella sonnei EW 33; EW33, 1×10^6 cells/ml
  MIC: 0.2 µg/mL (≈ 0.555 µM)
Shigella sonnei EW 33; EW33, 1×10^8 cells/ml
  MIC: 0.2 µg/mL (≈ 0.555 µM)
[4]; IFO3762, 1×10^6 cells/ml
  MIC: 0.2 µg/mL (≈ 0.555 µM)
[4]; IFO3762, 1×10^8 cells/ml
  MIC: 0.39 µg/mL (≈ 1.08 µM)
